Experimental data: the supplement of paper PMC11997997

Assays:
[1] = system: murine bone marrow-derived macrophages; assay: area under cytotoxicity dose-response curve (AUC (% cytotoxicity x dose, relative)); higher = more cytotoxic; conditions: duration: 6 days; dose range: 0.13-80 uM, 8 points
Outline: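 Using opaque 384-well plates, primary murine bone marrow-derived macrophages were treated for 6 days at 37 °C in 5% CO2 with an 8-point, 2.5-fold dilution series spanning final concentrations of 80–0.13 μM. After CellTiter-Glo (Promega) luminescence readout of viability, percent cytotoxicity was normalised to vehicle and positive control wells. The reported value is the area under the dose–response curve for cytotoxicity, derived in GraphPad Prism version 10.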

[2] = system: Mycobacterium tuberculosis CDC1551 (intracellular, in murine BMDM); assay: area under intracellular growth-inhibition dose-response curve (AUC (% inhibition x dose, relative)); higher = more potent; conditions: duration: 6 days; dose range: 0.13-80 uM, 8 points
Outline: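 Primary murine bone marrow-derived macrophages in 384-well opaque plates were infected 24 h after seeding with luciferase-expressing M. tuberculosis CDC1551 at multiplicity of infection 1 for 1 h. They were then treated with an 8-dose, 2.5-fold series (final 80–0.13 μM) for 6 days. Growth was read by Bright-Glo luciferin assay and normalised to a reference drug control and the lowest-concentration wells. The value is the area under the growth-inhibition dose–response curve, calculated in GraphPad Prism.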

Compound	area under cytotoxicity dose-response curve [1]	area under intracellular growth-inhibition dose-response curve [2]
Cc1ccc(C)c(N2CCN(CCCNC(=O)Cn3cccc3C(=O)c3ccccc3C)CC2)c1	3.91	84.4
O=C(N/N=C/c1ccccn1)c1ccncc1	1.91	262
CNC[C@H](CC1CCCCC1)NC[C@H](Cc1ccccc1)NCCC12CC3CC(CC(C3)C1)C2	43	104
CC(=O)NC(=S)Nc1ccc(NC(=O)c2cccnc2Cl)cc1	< 0	262
COC(=O)c1sccc1NC(=O)c1c(F)c(F)c(F)c(F)c1F	12.8	158
Cc1ccc(-[n+]2c(-c3ccc(Br)cc3)cn3c2CCc2ccc4cccnc4c2-3)cc1.[Br-]	29	96.2
O=C(N/N=C/C=C/c1ccccc1)c1ccncc1	< 0	266
COc1ccccc1C(CNC(=O)CN1C(=O)NC(C)(c2ccc3ccccc3c2)C1=O)N1CCCC1 (stereo unspecified)	44.4	93.4
Cc1ccc2[nH]c(/C(C#N)=C\c3ccc([N+](=O)[O-])o3)nc2c1	76.5	8.24
O=C(Nc1ccc(S(=O)(=O)Nc2nccs2)cc1)C(F)(F)F	30	159
O=C(O)c1nc(O)nc(O)c1F	< 0	174
CCC(=O)NC(=S)Nc1ccc(NC(=O)c2ccc(Br)o2)cc1	58.2	211
CC(NC(=O)c1cc([N+](=O)[O-])cc([N+](=O)[O-])c1)C1CC2CCC1C2 (stereo unspecified)	64.9	257
COc1ccc(NC(=S)Nc2ccc(Oc3ccccc3)cc2)cc1	< 0	233
CCCCCCNC(=O)c1ccc(Br)o1	< 0	225
On1c(-c2ccccc2)nc2ccccc21	< 0	28.6
Cc1nnc(SCC2=C(C(=O)O)N3C(=O)C(NC(=O)Cn4nc(C)c(Cl)c4C)C3SC2)s1 (stereo unspecified)	82.6	112
CC(NC(=O)Nc1ccc(Br)cc1)C(C)(C)C (stereo unspecified)	55.3	228
O.Sc1[nH]cnc2ncnc1-2	< 0	140
Cc1ccc(C(=O)OCC(=O)Nc2ccccc2)cc1S(=O)(=O)N1CCCCC1	< 0	94.3
COc1cc(/C=N/NC(=O)c2ccncc2)ccc1OCC(=O)Nc1ccccc1	< 0	232

Compound	area under cytotoxicity dose-response curve [1]	area under intracellular growth-inhibition dose-response curve [2]
CCOc1ccc(Br)cc1/C=N/NC(=O)c1ccncc1	< 0	268
COc1cccc(OCC(=O)NC2CCCCCC2)c1	22.4	266
O=C(/C=C/c1ccco1)c1ccc(NC(=O)C23CC4CC(CC(C4)C2)C3)cc1	< 0	260
CC(C)Oc1ccc(/C=N/NC(N)=S)cc1	17.8	275
O=C(CCC1CCCCC1)NCc1ccccn1	3	222
O=C(NCc1cccc(Cl)c1)c1cccc(S(=O)(=O)N2CCCCC2)c1	< 0	60.1
N#Cc1ccc(C(=O)NCC2CCCCC2)cc1	44.2	107
CC(C)/N=c1\cc2n(-c3ccc(Cl)cc3)c3ccccc3nc-2cc1Nc1ccc(Cl)cc1	73.5	208
CC[C@@H](C)[C@@H]1CN([C@@H](C)CN2CCC[C@H]2CN2C(N)=NC[C@@H]2Cc2ccccc2)C(=N)N1CCc1ccc(Cl)c(Cl)c1	< 0	167
NC(=S)N/N=C/c1ccc(Br)o1	3.81	246
O=C(N/N=C/c1c(F)c(F)c(F)c(F)c1F)c1cccc(S(=O)(=O)N2CCOCC2)c1	128	45.4
CN(C)C1C(=O)C(C(N)=O)=C(O)C2(O)C(O)=C3C(=O)c4c(O)cccc4C(C)(O)C3C(O)C12 (stereo unspecified)	22.3	166
NC(=S)NN=C1Cc2cccc3cccc1c23	58.9	263
CCOC(=O)CCCc1ccc(/C(C)=N/NC(N)=S)cc1	65.1	156
CCOC(=O)Nc1ccc(C(=O)Oc2ccccc2)c(O)c1	63.8	31.9
CC(NC(=O)c1ccc(F)cc1)C1CC2CCC1C2 (stereo unspecified)	238	168
O=C(COc1ccc(Cl)cc1)N1CCCC1	64	213
COc1ccc(NC(=S)Nc2ccc(N)c([N+](=O)[O-])c2)cc1	5.13	167
COC(=O)Cc1ccc(NC(=S)Nc2ccc(N3CCOCC3)cc2)cc1	50.5	241
CC(=NNC(=O)c1ccncc1)c1cccc(Br)c1	< 0	234
CN1CCN2c3ccccc3Cc3ccccc3C2C1.Cl (stereo unspecified)	< 0	118

Compound	area under cytotoxicity dose-response curve [1]	area under intracellular growth-inhibition dose-response curve [2]
CC1CCCCC1NC(=O)c1cc2ccccc2o1 (stereo unspecified)	32.6	258
C/C(=N/NC(=O)c1ccncc1)c1ccc(NC(=O)c2ccccc2)cc1	28.2	240
O=C(NN=C1CCCCCC1)c1ccncc1	11.3	273
O=C(NCCc1ccccc1)c1ccc(Br)o1	46.2	193
C/C(=N\NC(N)=S)c1ccncc1	113	138
CCC(=O)N(C)CCc1cc2c(c(OC)c1/C=N/NC(=O)c1ccncc1)OCO2	48.4	127
CC1CCN(C(=O)COc2ccccc2F)CC1	50.5	214
Cc1ccc(C2=NCCn3c2c2ccc([N+](=O)[O-])cc2[n+]3[O-])cc1	96.8	20.7
CCC(C)c1ccc(NC(=S)Nc2ccc(OC)cc2)cc1 (stereo unspecified)	46.7	201
CCCCNC(=S)Nc1ccc2c[nH]nc2c1	37.5	190
Cc1cc2oc(=O)cc(-c3ccccc3)c2c(C)c1-c1ccc(CO)cc1	< 0	271
CC1CCCN(C(=O)C2CCC(CNc3c(N4CCCCC4)c(=O)c3=O)CC2)C1 (stereo unspecified)	8.75	91.7
CCOc1ccccc1OCCCC(=O)Nc1cccc(S(=O)(=O)N2CCOCC2)c1	99	74
NC(=S)N/N=C/c1ccc(-c2ccc(SC(F)F)cc2)o1	46.9	271
O=C(N/N=C/c1ccc([N+](=O)[O-])o1)C(O)c1ccccc1 (stereo unspecified)	72.7	123
Brc1ccc(-[n+]2c(-c3ccccc3)cc(-c3ccccc3)cc2-c2ccccc2)cc1.[O-][Cl+3]([O-])([O-])[O-]	14.7	70.1
COc1ccccc1OCC(=O)N/N=C/C=C/c1ccc([N+](=O)[O-])o1	< 0	73.2
O=C1NC(=S)S/C1=C\C=C\c1ccc([N+](=O)[O-])o1	71.5	2.55
O=C(C=Cc1ccccc1)N1CCCCC1	46.5	119
Fc1ccc(C2=CC(c3cccs3)n3nnnc3N2)cc1 (stereo unspecified)	< 0	216
Cc1ccc(C)c(-c2nnc(NC(=O)c3ccc([N+](=O)[O-])o3)o2)c1	128	62
